Measured values from patent publication EP1377579B1 (Aventis Pharmaceuticals Inc., priority 2000, dated 2002).

How the values were obtained:
MDA-MB-435 = experiment: In vitro proliferation assay (MTT), MDA-MB-435; type: cell-based, human; conditions: Homo sapiens, MDA-MB-435, MTT assay; value (SD, n) where given; read-out: MB-435 Breast (IC50 µM)
Method in brief: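 IC50 values come from absorbance at 570 nm after MTT staining of cells grown with compound for 3 days. Seeding density was 1000 to 2500 cells/well, depending on the line.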

Colo-205 = experiment: In vitro proliferation assay (MTT), Colo-205; type: cell-based; conditions: Homo sapiens, COLO 205; MTT assay; value (SD, n) where given; read-out: Colo-205 Colon (IC50 µM)
Method in brief: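 Colo-205 cells were seeded at 1000–2500 cells/well and allowed to attach overnight, then exposed to compound for 3 days. Viable cells were measured by MTT reduction (2–4 h, 37 °C), with DMSO-solubilised dye read at 570 nm. IC50 was derived from concentration–response data.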

cdk1/cyclin B = cdk1/cyclin B (Homo sapiens, UniProt P06493); experiment: Cyclin-dependent kinase assay, cdk1/cyclin B; conditions: CDK1 IC50, nM, Histone H1, 10 µM ATP
Sequence of cdk1/cyclin B (P06493 whole entry): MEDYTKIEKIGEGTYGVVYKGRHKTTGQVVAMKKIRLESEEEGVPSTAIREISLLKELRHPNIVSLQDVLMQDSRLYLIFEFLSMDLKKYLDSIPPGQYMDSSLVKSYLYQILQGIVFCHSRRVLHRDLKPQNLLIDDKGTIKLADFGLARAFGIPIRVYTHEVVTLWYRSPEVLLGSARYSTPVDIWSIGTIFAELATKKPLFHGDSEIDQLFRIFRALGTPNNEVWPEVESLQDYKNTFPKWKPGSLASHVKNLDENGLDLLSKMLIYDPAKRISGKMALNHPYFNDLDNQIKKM
Sequence of cdk1/cyclin B (P14635 whole entry partner): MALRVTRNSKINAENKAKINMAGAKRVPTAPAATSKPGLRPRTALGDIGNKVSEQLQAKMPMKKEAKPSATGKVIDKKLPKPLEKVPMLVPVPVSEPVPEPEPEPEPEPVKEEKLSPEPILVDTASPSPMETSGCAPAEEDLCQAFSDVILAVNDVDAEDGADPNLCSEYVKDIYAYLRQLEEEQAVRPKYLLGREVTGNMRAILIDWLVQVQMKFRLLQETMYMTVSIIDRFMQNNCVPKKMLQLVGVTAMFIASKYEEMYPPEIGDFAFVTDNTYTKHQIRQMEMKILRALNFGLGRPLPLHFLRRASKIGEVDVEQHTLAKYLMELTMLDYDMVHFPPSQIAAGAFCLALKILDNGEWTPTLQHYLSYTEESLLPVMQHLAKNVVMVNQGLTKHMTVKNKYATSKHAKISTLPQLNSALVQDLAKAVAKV

Jurkat = experiment: In vitro proliferation assay (MTT), Jurkat; type: cell-based; conditions: Homo sapiens, MTT assay, value (SD, n) where given, read-out: Jurkat Leuk. (IC50 µM)
Method in brief: (§1)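 Tetrazolium (MTT) proliferation test following a 3-day treatment with compound. Read-out is optical density at 570 nm after DMSO solubilization.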

NCI-H460 = experiment: In vitro proliferation assay (MTT), NCI-H460; type: cell-based; conditions: Homo sapiens, NCI-H460; MTT assay; value (SD, n) where given; read-out: H-460 Lung (IC50 µM)
Method in brief: as §1

in vivo = conditions: male, Hsd:ICR (CD-1), mouse, plasma, iv
cdk4/cyclin D1 = cdk4/cyclin D1 (Homo sapiens, UniProt P11802); experiment: Cyclin-dependent kinase assay, cdk4/cyclin D1; type: biochemical; conditions: cyclin D1/cdk4; GST-pRb substrate, 10 µM ATP
Sequence of cdk4/cyclin D1 (P11802 whole entry): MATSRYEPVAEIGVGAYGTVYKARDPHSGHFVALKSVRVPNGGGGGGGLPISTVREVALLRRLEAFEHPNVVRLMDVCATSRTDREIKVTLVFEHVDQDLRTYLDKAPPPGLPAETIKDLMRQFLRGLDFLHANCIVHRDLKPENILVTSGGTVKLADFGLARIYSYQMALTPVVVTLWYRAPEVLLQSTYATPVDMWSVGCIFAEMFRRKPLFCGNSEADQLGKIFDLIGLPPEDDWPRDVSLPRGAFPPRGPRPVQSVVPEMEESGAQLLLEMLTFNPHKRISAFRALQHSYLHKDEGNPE
Sequence of cdk4/cyclin D1 (P24385 whole entry partner): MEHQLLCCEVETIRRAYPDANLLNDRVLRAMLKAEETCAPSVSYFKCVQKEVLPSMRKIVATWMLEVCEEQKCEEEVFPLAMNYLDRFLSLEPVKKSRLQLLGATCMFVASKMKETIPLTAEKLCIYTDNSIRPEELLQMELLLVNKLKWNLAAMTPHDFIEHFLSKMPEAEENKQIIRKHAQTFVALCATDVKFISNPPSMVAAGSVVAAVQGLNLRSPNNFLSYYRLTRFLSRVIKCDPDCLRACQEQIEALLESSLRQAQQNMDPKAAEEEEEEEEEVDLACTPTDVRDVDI

[1] = Red blood cell binding, mouse whole blood; type: in vitro ADME; conditions: 30 minutes at 37°C, 500 ng/ml

- IC50 (MDA-MB-435): 0.21 µM
- IC50 (Colo-205): 0.01 µM
- IC50 (cdk1/cyclin B): 11 nM
- IC50 (Jurkat): 0.25 µM
- IC50 (NCI-H460): 0.24 µM
- AUC(0-inf) (in vivo; 3 mg/kg): 1580 ng·h/mL
- Cmax (in vivo; 3 mg/kg): 4850 ng/mL
- half-life (in vivo; 3 mg/kg): 48 min
- concentration at 0.083 h (in vivo; 18 mg/kg): 4850 ± 794 ng/mL
- concentration at 0.25 h (in vivo; 18 mg/kg): 1130 ± 243 ng/mL
- concentration at 0.5 h (in vivo; 18 mg/kg): 377 ± 73.2 ng/mL
- concentration at 1 h (in vivo; 18 mg/kg): 126 ± 12.3 ng/mL
- concentration at 3 h (in vivo; 18 mg/kg): 8.4 ± 3.1 ng/mL
- concentration at 6 h (in vivo; 18 mg/kg): 2.3 ± 1.6 ng/mL
- IC50 (cdk4/cyclin D1): 285 nM
- Mean Red Blood Cell to Plasma Ratio [1]: 17.8
Structure (SMILES): CCOC(=O)c1ccc(NC(=O)N2CCC(Nc3nc(N[C@H]4CC[C@H](N)CC4)nc4c3ncn4C3CCCC3)CC2)cc1.Cl.Cl [compound 154, trans-4-[(1-{4-[2-(4-Amino-cyclohexylamino)-9-cyclopentyl-9H-purin-6-ylamino]-piperidin-1-yl}-methanoyl)-amino]-benzoic acid ethyl ester dihydrochloride]
